Measured values reported in US20250332167A1, “PHARMACEUTICAL USE OF CDK 4/6 INHIBITOR” (priority 2021, published 2025).
Entries after “also recorded” stand apart in the source; their conditions may differ.

Legend:
[1] = test system: NCI-H1792; experiment: Proliferation inhibition, non-small cell lung cancer cell line NCI-H1792; type: cell-based; conditions: Homo sapiens, NCI-H1792, 72 h
Experimental: (§1) Sixteen non-small cell lung cancer cell lines, including NCI-H1792, NCI-H1703, NCI-H441, SNU-761, NCI-H1975, NCI-H358, NCI-H1838, NCI-H1915, A549, SK-MES-1, NCI-H292, PC-9, NCI-H460, NCI-H23, NCI-H1581, and HLF, were used for the proliferation inhibition assay of the present invention compound. […] The cell detection equipment used was In Cell Analyzer 2200 (GE Healthcare).
(§2) With 60 μM as the initial concentration, ten points were obtained by serial five-fold dilution.
(§3) Each kind of cell in logarithmic growth phase was inoculated with 4000 cells/100 μl/well into a black transparent bottom 96-well plate and cultured overnight at 37° C. The next day, the plate was taken out, and 20 μL of the prepared sample dilutions was added to each well. The plate was then subjected to treatment at 37° C. for 72 hours. After the treatment period of 72 hours, the plate was taken out and 50 μL of neutral formaldehyde fixative (formaldehyde: PBS=1:9, 50 μl/well) was added to each well. The plate was then fixed at room temperature for 10-30 minutes. Subsequently, the wells were washed twice with 1× PBS (100 μl/well) and treated with 0.2% Triton™-X100 for 5-10 minutes to permeabilize the cells. […] The inhibitory rates of each compound at different concentration points were calculated by using the following formula, and IC50 values were obtained through curve fitting using GraphPad Prism 6.0 software.

[2] = test system: NCI-H441; experiment: Proliferation inhibition, non-small cell lung cancer cell line NCI-H441; type: cell-based; conditions: Homo sapiens, NCI-H441, 72 h
Experimental: as §1, §2, §3

[3] = test system: NCI-H358; experiment: Proliferation inhibition, non-small cell lung cancer cell line NCI-H358; type: cell-based; conditions: Homo sapiens, NCI-H358, 72 h
Experimental: as §1, §2, §3

[4] = test system: NCI-H1838; experiment: Proliferation inhibition, non-small cell lung cancer cell line NCI-H1838; type: cell-based; conditions: Homo sapiens, NCI-H1838, 72 h
Experimental: as §1, §2, §3

[5] = test system: A549; experiment: Proliferation inhibition, non-small cell lung cancer cell line A549; type: cell-based; conditions: Homo sapiens, A549, 72 h
Experimental: as §1, §2, §3

[6] = test system: NCI-H292; experiment: Proliferation inhibition, non-small cell lung cancer cell line NCI-H292; type: cell-based; conditions: Homo sapiens, NCI-H292, 72 h
Experimental: as §1, §2, §3

[7] = test system: PC-9; experiment: Proliferation inhibition, non-small cell lung cancer cell line PC-9; type: cell-based; conditions: Homo sapiens, PC-9, 72 h
Experimental: as §1, §2, §3

[8] = test system: NCI-H460; experiment: Proliferation inhibition, non-small cell lung cancer cell line NCI-H460; type: cell-based; conditions: Homo sapiens, NCI-H460, 72 h
Experimental: as §1, §2, §3

[9] = test system: NCI-H23; experiment: Proliferation inhibition, non-small cell lung cancer cell line NCI-H23; type: cell-based; conditions: Homo sapiens, NCI-H23, 72 h
Experimental: as §1, §2, §3

[10] = test system: HLF; experiment: Proliferation inhibition, non-small cell lung cancer cell line HLF; type: cell-based; conditions: Homo sapiens, 72 h
Experimental: as §1, §2, §3

[11] = test system: Human glioblastoma model (BN2289); experiment: Human glioblastoma xenograft mouse model (BN2289); type: in vivo, BALB/C nude mice; conditions: for Day 21 Tumor Volume / Relative Average Tumor Volume / T/C (relative tumor growth rate) / TGI (relative tumor inhibition rate): day 21
Text: Human glioblastoma model (BN2289, Crown Bioscience Co., Ltd.) tumor fragments were cut into small pieces with a diameter of 2-3 mm and subcutaneously inoculated into the right side of BALB/C nude mice. Tumor growth was monitored regularly, and when the tumors grew to an average volume of approximately 100-200 mm^3, mice were randomly divided into groups based on the tumor size.
Each group consisted of 8 mice and received oral gavage administration once daily for a total of 28 days. Regular observations were made on tumor volume and changes in body weight. Efficacy evaluation was conducted based on the relative tumor growth rate (T/C) and the relative tumor inhibition rate (TGI).
(§4) The formula for calculating tumor volume was: Tumor Volume (mm^3)=½×(a×b^2) (where “a” represents the long diameter and “b” represents the short diameter).
(§5) The relative tumor growth rate (T/C) is the percentage value of the relative tumor volume or weight between the treatment group and the control group at a certain time point. The calculation formula is as follows: • T/C(%)=TRTV/CRTV×100% (TRTV: Average RTV of the treatment group; CRTV: Average RTV of the Vehicle group; RTV=Vt/V0, where V0 is the tumor volume of the animal at the time of grouping and Vt is the tumor volume of the animal after treatment).
(§6) (T and C are the relative tumor volume (RTV) or weight (TW) of the treatment group and control group at a specific time point, respectively).

[12] = test system: NCI-H2228 xenograft; experiment: Human non-small cell lung cancer NCI-H2228 xenograft mouse model; type: in vivo, mice
Text: as §4, §5, §6
Human non-small cell lung cancer cells NCI-H2228 were cultured in RPMI-1640 medium containing 10% fetal bovine serum. Log-phase NCI-H2228 cells were collected, suspended in PBS to an appropriate concentration, and mixed with extracellular matrix gel in a 1:1 ratio for subcutaneous tumor implantation in mice. Twenty female mice were subcutaneously implanted with NCI-H2228 cells on the right side. The cells were suspended in PBS and mixed evenly with matrix gel in a 1:1 ratio (0.1 ml per mouse). When the average tumor volume reached 143 mm^3, the mice were randomly divided into groups based on tumor size. The groups received either the solvent or Compound A from Example 1 (50 mg/kg), administrated by oral intragastric administration once a day for 28 days. Tumor volume and body weight changes were regularly observed. All animals were euthanized on day 50 after cell inoculation. The tumors were weighed and photographed. The calculation methods for tumor volume, relative tumor growth rate (T/C), and tumor growth inhibition rate (TGI) were shown in Example 3.

[13] = 10 mg/kg oral gavage once daily
[14] = 25 mg/kg oral gavage once daily
[15] = 50 mg/kg oral gavage once daily
[16] = 50 mg/kg oral once a day for 28 days, day 50 post-implantation
[17] = 50 mg/kg oral once a day, treatment period

Compound: CC1=Nc2c(F)cc(-c3nc(Nc4ccc(C5CCN(C)CC5)cn4)ncc3F)cc2C12CCCC2.O=C(O)/C=C/C(=O)O [Compound A, Fumarate salt of 5-fluoro-4-(7′-fluoro-2′-methylspiro[cyclopentane-1,3′-indol]-5′-yl)-N-(5-(1-methylpiperidin-4-yl)pyridin-2-yl)pyrimidine-2-amine]
- IC50 [1]: 0.003 µM
- IC50 [2]: 0.007 µM
- IC50 [3]: 0.017 µM
- IC50 [4]: 0.0479 µM
- IC50 [5]: 0.066 µM
- IC50 [6]: 0.073 µM
- IC50 [7]: 0.18 µM
- IC50 [8]: 0.235 µM
- IC50 [9]: 0.243 µM
- IC50 [10]: 2.01 µM
- Day 21 Tumor Volume ([11]; 5 mg/kg oral gavage once daily): 2038.41 ± 177.46 mm^3
- Relative Average Tumor Volume ([11]; 5 mg/kg oral gavage once daily): 13.80
- T/C (relative tumor growth rate) ([11]; 5 mg/kg oral gavage once daily): 95.08%
- TGI (relative tumor inhibition rate) ([11]; 5 mg/kg oral gavage once daily): 4.92%
- Day 21 Tumor Volume [11, 13]: 1900.70 ± 134.20 mm^3
- Relative Average Tumor Volume [11, 13]: 12.81
- T/C (relative tumor growth rate) [11, 13]: 88.24%
- TGI (relative tumor inhibition rate) [11, 13]: 11.76%
- Day 21 Tumor Volume [11, 14]: 1302.81 ± 119.99 mm^3
- Relative Average Tumor Volume [11, 14]: 8.80
- T/C (relative tumor growth rate) [11, 14]: 60.61%
- TGI (relative tumor inhibition rate) [11, 14]: 39.39%
- Day 21 Tumor Volume [11, 15]: 938.13 ± 52.26 mm^3
- Relative Average Tumor Volume [11, 15]: 6.32
- T/C (relative tumor growth rate) [11, 15]: 43.56%
- TGI (relative tumor inhibition rate) [11, 15]: 56.44%
- Drug toxicity / tolerance (body weight) ([11]; 5-50 mg/kg oral gavage once daily, 28 days): no significant toxic side effects
- T/C [12, 16]: 64%
- TGI [12, 16]: 36%
- Tumor relative volume (x ± SEM) [12, 16]: 3.38 ± 0.23
- Tumor volume (x ± SEM) [12, 16]: 506.53 mm^3
- Tumor volume (x ± SEM) ([12]; 50 mg/kg oral once a day for 28 days, day 50 post-implantation, listed as CompoundA): 506.53 ± 44.73 mm^3
- Body weight change [12, 17]: slight weight loss
- Tolerability / adverse effects [12, 17]: good tolerability; also recorded: no obvious adverse effects
